How the values were obtained:
[1] = molecular target: PASK (UniProt #Q96RG2; residues 879-1323) (Homo sapiens (Human), UniProt Q96RG2); experiment: PASK ATP Radiochemical Assay; format: biochemical; details: 33P-ATP radiochemical assay; read-out: IC50 Kinase Domain
In short: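 Radiometric kinase assay: GST-tagged PASK (5 nM final) from insect cells with Myelin Basic Protein (20 μM) in HEPES pH 7.5 buffer, 1% DMSO; reaction started with ^33P-ATP, 120 min at room temperature. Substrate phosphorylation captured on P81 paper and read by scintillation counting.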

[2] = molecular target: PASK (Homo sapiens (Human), UniProt Q96RG2); experiment: PAS Kinase FRET Assay; format: biochemical; details: TR-FRET assay; read-out: IC50 Kinase Domain
PASK (Homo sapiens (Human), UniProt Q96RG2), sequence (Q96RG2 999-1251): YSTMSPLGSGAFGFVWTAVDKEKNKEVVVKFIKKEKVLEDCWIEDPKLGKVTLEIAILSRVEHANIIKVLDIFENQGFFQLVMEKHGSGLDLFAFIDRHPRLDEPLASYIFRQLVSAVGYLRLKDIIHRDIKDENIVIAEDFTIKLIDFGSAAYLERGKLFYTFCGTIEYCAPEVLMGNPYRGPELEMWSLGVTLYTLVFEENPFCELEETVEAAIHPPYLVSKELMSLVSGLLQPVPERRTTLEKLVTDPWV
In short: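 Reaction buffer: 50 mM HEPES, 10 mM MgCl2, 1 mM EGTA, 2 mM DTT, 0.01% Tween-20. Test compounds (eleven-point series prepared at 4× final) preceded PASK and substrate/ATP. Reaction ran 2 h at 25 °C in the dark, then stopped. Phospho-ULight peptide detected by Eu-antibody TR-FRET, 665/615 nm ratio.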

[3] = molecular target: CK2a2 (Homo sapiens (Human), UniProt P19784); experiment: Biochemical Assay for CK2 Activity; details: 33P-ATP radiochemical assay; read-out: IC50 CK2 a2
CK2a2, sequence (P19784 whole entry): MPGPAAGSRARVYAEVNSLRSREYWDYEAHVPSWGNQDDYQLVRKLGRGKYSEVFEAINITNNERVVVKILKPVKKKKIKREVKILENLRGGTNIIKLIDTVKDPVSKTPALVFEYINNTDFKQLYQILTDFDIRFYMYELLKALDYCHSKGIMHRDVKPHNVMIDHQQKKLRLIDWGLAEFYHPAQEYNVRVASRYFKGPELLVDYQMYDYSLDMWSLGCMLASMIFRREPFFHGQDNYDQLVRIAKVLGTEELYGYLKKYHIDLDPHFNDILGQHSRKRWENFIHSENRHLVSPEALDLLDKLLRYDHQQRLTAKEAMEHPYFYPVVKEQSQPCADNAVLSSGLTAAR
In short: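 GST-tagged full-length human CK2a2 from insect cells (1.2 nM) with 20 μM RRRDDDSDDD peptide, in pH 7.5 HEPES buffer with MgCl2, DTT and 1% DMSO. Reactions started with ³³P-ATP were run for 120 min at room temperature. Substrate phosphorylation was measured by P81 phosphocellulose filter binding and scintillation counting.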

Measured: IC50

PASK (UniProt #Q96RG2; residues 879-1323) (Homo sapiens (Human), UniProt Q96RG2), sequence (Q96RG2 879-1323): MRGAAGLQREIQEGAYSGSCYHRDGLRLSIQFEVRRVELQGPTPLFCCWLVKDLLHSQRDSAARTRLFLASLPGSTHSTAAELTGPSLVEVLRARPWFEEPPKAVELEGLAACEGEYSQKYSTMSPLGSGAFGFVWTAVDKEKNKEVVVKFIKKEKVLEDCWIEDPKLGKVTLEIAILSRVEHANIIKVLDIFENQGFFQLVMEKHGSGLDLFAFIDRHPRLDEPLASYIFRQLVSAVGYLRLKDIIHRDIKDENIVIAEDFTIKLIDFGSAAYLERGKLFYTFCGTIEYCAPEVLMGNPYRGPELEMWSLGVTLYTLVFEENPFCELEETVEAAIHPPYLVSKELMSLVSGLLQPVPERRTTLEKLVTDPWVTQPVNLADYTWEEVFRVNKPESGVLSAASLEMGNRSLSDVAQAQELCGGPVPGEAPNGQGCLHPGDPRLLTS

O=c1cc(-c2ccc3c(c2)OC(F)(F)O3)[nH]c2c(-c3ccccn3)cnn12 [Example 158, 5-(2,2-Difluorobenzo[d][1,3]dioxol-5-yl)-3-(pyridin-2-yl)pyrazolo[1,5-a]pyrimidin-7(4H)-one]
≤ 10 µM: all assays above

Nc1nn2c(=O)cc(-c3ccc4[nH]ncc4c3)[nH]c2c1-c1ccccn1 [Example 159, 2-Amino-5-(1H-indazol-5-yl)-3-(pyridin-2-yl)pyrazolo[1,5-a]pyrimidin-7(4H)-one]
≤ 10 µM: all assays above

O=c1cc(-c2ccc3[nH]ncc3c2)[nH]c2c(-c3ccccn3)cnn12 [Example 160, 5-(1H-Indazol-5-yl)-3-(pyridin-2-yl)pyrazolo[1,5-a]pyrimidin-7(4H)-one]
≤ 10 µM: all assays above

CCc1nn2c(=O)cc(-c3ccc4c(c3)OCO4)[nH]c2c1-c1ccccn1 [Example 161, 5-(Benzo[d][1,3]dioxol-5-yl)-2-ethyl-3-(pyridin-2-yl)pyrazolo[1,5-a]pyrimidin-7(4H)-one]
≤ 10 µM: all assays above

Nc1nn2c(=O)cc(-c3ccc(Cl)cc3F)[nH]c2c1-c1ccccn1 [Example 163, 2-Amino-5-(4-chloro-2-fluorophenyl)-3-(pyridin-2-yl)pyrazolo[1,5-a]pyrimidin-7(4H)-one]
≤ 10 µM: all assays above

O=c1cc(-c2ccc3c(c2)OCO3)[nH]c2c(-c3ncccc3F)cnn12 [Example 164, 5-(Benzo[d][1,3]dioxol-5-yl)-3-(3-fluoropyridin-2-yl)pyrazolo[1,5-a]pyrimidin-7(4H)-one]
≤ 10 µM: all assays above

Nc1nn2c(=O)cc(-c3ccc(F)cc3)[nH]c2c1-c1ccccn1 [Example 171, 2-Amino-5-(4-fluorophenyl)-3-(pyridin-2-yl)pyrazolo[1,5-a]pyrimidin-7(4H)-one]
≤ 10 µM: all assays above

Nc1nn2c(=O)cc(-c3ccc4[nH]nnc4c3)[nH]c2c1-c1ccccn1 [Example 191, 2-Amino-5-(1H-benzo[d][1,2,3]triazol-5-yl)-3-(pyridin-2-yl)pyrazolo[1,5-a]pyrimidin-7(4H)-one]
≤ 10 µM: all assays above

O=c1cc(-c2ccc3[nH]nnc3c2)[nH]c2c(-c3ccccn3)c(O)nn12 [Example 193, 5-(1H-Benzo[d][1,2,3]triazol-5-yl)-2-hydroxy-3-(pyridin-2-yl)pyrazolo[1,5-a]pyrimidin-7(4H)-one]
≤ 10 µM: all assays above

CCCNC(=O)c1c(N)nn2c(=O)cc(-c3ccc4c(cnn4C)c3)[nH]c12 [Example 197, 2-Amino-5-(1-methyl-1H-indazol-5-yl)-7-oxo-N-propyl-4,7-dihydropyrazolo[1,5-a]pyrimidine-3-carboxamide]
≤ 10 µM: all assays above

CCCNC(=O)c1c(N)nn2c(=O)cc(-c3ccc4[nH]ncc4c3)[nH]c12 [Example 198, 2-Amino-5-(1H-indazol-5-yl)-7-oxo-N-propyl-4,7-dihydropyrazolo[1,5-a]pyrimidine-3-carboxamide]
≤ 10 µM: all assays above

Nc1nn2c(=O)cc(-c3ccc4[nH]nnc4c3)[nH]c2c1-c1ccccc1 [Example 199, 2-Amino-5-(1H-benzo[d][1,2,3]triazol-5-yl)-3-phenylpyrazolo[1,5-a]pyrimidin-7(4H)-one]
≤ 10 µM: all assays above

CCc1nn2c(=O)cc(-c3ccc4[nH]nnc4c3)[nH]c2c1-c1ccccn1 [Example 201, 5-(1H-benzo[d][1,2,3]triazol-5-yl)-2-ethyl-3-(pyridin-2-yl)pyrazolo[1,5-a]pyrimidin-7(4H)-one]
≤ 10 µM: all assays above

CC(=O)Nc1nn2c(=O)cc(-c3ccc4c(cnn4C)c3)[nH]c2c1-c1ccccn1 [Example 205, N-(5-(1-Methyl-1H-indazol-5-yl)-7-oxo-3-(pyridin-2-yl)-4,7-dihydropyrazolo[1,5-a]pyrimidin-2-yl)acetamide]
≤ 10 µM: all assays above

Cc1nn2c(=O)cc(-c3ccc4c(c3)OCO4)[nH]c2c1Cc1ccccn1 [Example 210, 5-(Benzo[d][1,3]dioxol-5-yl)-2-methyl-3-(pyridin-2-ylmethyl)pyrazolo[1,5-a]pyrimidin-7(4H)-one]
≤ 10 µM: all assays above

O=c1cc(-c2ccc3[nH]nnc3c2)[nH]c2c(-c3cccnc3)cnn12 [Example 213, 5-(1H-Benzo[d][1,2,3]triazol-5-yl)-3-(pyridin-3-yl)pyrazolo[1,5-a]pyrimidin-7(4H)-one]
≤ 10 µM: all assays above

CCCNC(=O)c1cnn2c(=O)cc(-c3ccc4[nH]nnc4c3)[nH]c12 [Example 214, 5-(1H-Benzo[d][1,2,3]triazol-5-yl)-7-oxo-N-propyl-4,7-dihydropyrazolo[1,5-a]pyrimidine-3-carboxamide]
≤ 10 µM: all assays above

Nc1nn2c(=O)cc(-c3ccc4[nH]nnc4c3)[nH]c2c1-c1ccc(Cl)cc1 [Example 217, 2-Amino-5-(1H-benzo[d][1,2,3]triazol-5-yl)-3-(4-chlorophenyl)pyrazolo[1,5-a]pyrimidin-7(4H)-one]
≤ 10 µM: all assays above

O=c1cc(-c2ccc3[nH]nnc3c2)[nH]c2c(-c3ccc(Cl)cc3)cnn12 [Example 218, 5-(1H-Benzo[d][1,2,3]triazol-5-yl)-3-(4-chlorophenyl)pyrazolo[1,5-a]pyrimidin-7(4H)-one]
≤ 10 µM: all assays above

CCCNC(=O)c1c(N)nn2c(=O)cc(-c3ccc4[nH]nnc4c3)[nH]c12 [Example 223, 2-Amino-5-(1H-benzo[d][1,2,3]triazol-5-yl)-7-oxo-N-propyl-4,7-dihydropyrazolo[1,5-a]pyrimidine-3-carboxamide]
≤ 10 µM: all assays above

CCCNC(=O)c1c(N)nn2c(=O)cc(-c3ccc4[nH]nc(C)c4c3)[nH]c12 [Example 224, 2-Amino-5-(3-methyl-1H-indazol-5-yl)-7-oxo-N-propyl-4,7-dihydropyrazolo[1,5-a]pyrimidine-3-carboxamide]
≤ 10 µM: all assays above

Source: patent publication US10953012B2, “Heterocyclic compounds for the inhibition of pask” (BioEnergenix LLC, priority 2011, dated 2021)
